Measured values as given in patent publication US7595313B2, “Nitric oxide donating diuretic compounds, compositions and methods of use” (NicOx, S.A., priority 2005, dated 2009).
pEC50: −log10 of the molar value. Marks after values point to notes of the source that are not given here.

Experiments:
plasma renin = assay: Rat renin inhibition under in vivo conditions (chronic administration via mini-osmotic pumps); conditions: for RENIN (Relative Units) DAY 0: Day 0 tail vein blood sample; for RENIN (Relative Units) DAY 0 / RENIN (Relative Units) Day 29: male Wistar rats, N=8; for RENIN (Relative Units) Day 29: terminal plasma day 29 after 28 days s.c. mini-pump, 10 mg/kg/day molar equivalent doses
Description: (§1) The effect of chronic administration of Example 51 and hydrochlorothiazide (HCT) on plasma aldosterone and renin levels was tested in male Wistar rats. Compounds were administered via mini-osmotic pumps implanted subcutaneously in the scapular area of the rats using asceptic techniques. Molar equivalent doses of HCT and Example 51 (10 mg/kg/day) in 50% DMSO/PEG300 were delivered for 28 days via Alzet mini-pumps and compared to vehicle treated animals. A 250 μl blood sample was obtained from tail vein cannulae for analysis of aldosterone and plasma renin levels (Day 0). Terminal plasma was collected on day 29 for analysis of aldosterone and plasma renin levels. Plasma renin and aldosterone were measured utilizing commercially available kits (Cayman Chemical; Ann Arbor, Mich. and Alpha Diagnostics; San Antonio, Tex., respectively).

plasma aldosterone = assay: Rat aldosterone inhibition under in vivo conditions (chronic administration via mini-osmotic pumps); conditions: for ALDOSTERONE (pg/ml) DAY 0: Day 0 tail vein blood sample; for ALDOSTERONE (pg/ml) DAY 0 / ALDOSTERONE (pg/ml) Day 29: male Wistar rats, N=8; for ALDOSTERONE (pg/ml) Day 29: terminal plasma day 29 after 28 days s.c. mini-pump, 10 mg/kg/day molar equivalent doses
Description: as §1

[1] = system: Spontaneously Hypertensive rats (SHR); assay: Blood pressure determination under in vivo conditions in the Spontaneously Hypertensive rat; conditions: gavage twice a day, 30 mg/kg HCT equivalent, telemetry, FIG. 2
Description: (§2) The effect of subchronic administration of Example 17b and hydrochlorothiazide (HCT) on blood pressure was assessed in telemeterized male Spontaneously Hypertensive rats (SHR; 9-10 weeks old; 250-300 g). Compounds were administered twice a day for 7 eight days via gavage at 30 mg/kg HCT equivalent in a 0.5% methylcellulose vehicle. Blood pressure was continuously monitored by telemetry and reported as a change in mean arterial blood pressure (MABP) over a 24 h period.

Male Wistar rats = assay: Determination of the diuresis (urine volume over 6 hours after oral dosing); type: in vivo, rat; conditions: for Urine collected in 6 hours (mL) (30 mg/kg): p.o. 30 mg/kg in 0.5% Methocel
How it was run: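 Male Wistar rats (180-200 g) in metabolic cages, fasted 18 h, water withdrawn 90 min before dosing. Compounds in 0.5% Methocel given p.o. at 30 or 3 mg/kg; urine volume collected over 6 h. Mean ±SEM, n=6 or 7.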

[2] = system: isolated rat aorta precontracted with phenylephrine; assay: In vitro relaxant effect in rat aorta
Description: The ability of Example 46b to relax isolated rat aorta precontracted with phenylephrine (1 μM) was studied. Example 46b was an efficacious relaxant agent in the rat aorta with an EC50 value of ˜7 μM. The vasorelaxant response elicited by Example 46b was abolished in the presence of ODQ, a potent and selective inhibitor of nitric oxide (NO)-sensitive guanylyl cyclase.

Dahl salt sensitive rats = assay: Blood pressure determination under in vivo conditions in the Dahl salt sensitive rat; conditions: Dahl salt sensitive rats on high salt (8%) diet, gavage twice a day, 30 mg/kg HCT equivalent, telemetry, FIG. 1
Description: as §2, with “1c” for “17b”, “Dahl salt sensitive” for “Spontaneously Hypertensive”, “(5-6” for “(SHR; 9-10”, “125-150 g) fed a high salt (8%) diet for 4 weeks.” for “250-300 g).”

[3] = day 29, 10 mg/kg/day for 28 days, result in words
[4] = p.o. 3 mg/kg in 0.5% Methocel, male Wistar rats, 6 hours, mean ± SEM, n=6 or 7
[5] = male Wistar rats, 6 hours, mean ± SEM, n=6 or 7

| Structure (SMILES) | melting point | Urine collected in 6 hours (mL) (3 mg/kg) (Male Wistar rats; [4]) | other results |
| --- | --- | --- | --- |
| NS(=O)(=O)c1cc2c(cc1Cl)NCNS2(=O)=O [HCT, hydrochlorothiazide, reference compound] |  |  | RENIN (Relative Units) DAY 0 (plasma renin): 5.0 ± 0.6 Relative Units; RENIN (Relative Units) Day 29 (plasma renin): 24.6 ± 1.0 Relative Units; ALDOSTERONE (pg/ml) DAY 0 (plasma aldosterone): 411.5 ± 41.8 pg/mL; ALDOSTERONE (pg/ml) Day 29 (plasma aldosterone): 2081.0 ± 232.1 pg/mL |
| NS(=O)(=O)c1cc2c(cc1Cl)NC(CCCCO[N+](=O)[O-])NS2(=O)=O (stereo not shown) [Example 17b, 2H-1,2,4-Benzothiadiazine-7-sulfonamide, 6-chloro-3,4-dihydro-3-[4-(nitrooxy)butyl]-, 1,1-dioxide] | 171 to 179 °C |  | reductions in blood pressure (mean arterial blood pressure) during the treatment period, larger than with HCT [1]: 5-6 mm Hg |
| NS(=O)(=O)c1cc2c(cc1Cl)NCN(CCCC(CO[N+](=O)[O-])O[N+](=O)[O-])S2(=O)=O (stereo not shown) [Example 43b, 2H-1,2,4-Benzothiadiazine-7-sulfonamide, 2-[4,5-bis(nitrooxy)pentyl]-6-chloro-3,4-dihydro-, 1,1-dioxide] | 49 to 53 °C |  | Urine collected in 6 hours (mL) (3 mg/kg) (Male Wistar rats; rat, in vivo, po): 3.0 ± 0.6 mL |
| NS(=O)(=O)c1cc2c(cc1Cl)NCN(CC[C@@H](CO[N+](=O)[O-])O[N+](=O)[O-])S2(=O)=O [Example 48b, 2H-1,2,4-Benzothiadiazine-7-sulfonamide, 2-[(3S)-3,4-bis(nitrooxy)butyl]-6-chloro-3,4-dihydro-, 1,1-dioxide] | 162 to 163 °C |  | Urine collected in 6 hours (mL) (3 mg/kg) (Male Wistar rats; rat, in vivo, po): 4.8 ± 0.8 mL |
| NS(=O)(=O)c1cc2c(cc1Cl)N([N+](=O)[O-])CN(CCO[N+](=O)[O-])S2(=O)=O [Example 52, 2H-1,2,4-Benzothiadiazine-7-sulfonamide, 6-chloro-3,4-dihydro-4-nitro-2-[2-(nitrooxy)ethyl]-, 1,1-dioxide] | 144 °C (dec.) |  | Urine collected in 6 hours (mL) (3 mg/kg) (Male Wistar rats; rat, in vivo, po): 5.7 ± 0.8 mL |
| NS(=O)(=O)c1cc2c(cc1Cl)NC(CCCCCO[N+](=O)[O-])NS2(=O)=O (stereo not shown) [Example 1c, 2H-1,2,4-Benzothiadiazine-7-sulfonamide, 6-chloro-3,4-dihydro-3-[5-(nitrooxy)pentyl]-, 1,1-dioxide] | 158 to 161 °C | 6.6 ± 0.4 | reductions in blood pressure (mean arterial blood pressure) during the treatment period (Dahl salt sensitive rats): approximately 5 mm Hg; Urine collected in 6 hours (mL) (30 mg/kg) (Male Wistar rats; [5]): 7.6 ± 0.5 mL |
| NS(=O)(=O)c1cc2c(cc1Cl)NCN(CC[C@H](CO[N+](=O)[O-])O[N+](=O)[O-])S2(=O)=O [Example 73b, 2H-1,2,4-Benzothiadiazine-7-sulfonamide, 2-[(3R)-3,4-bis(nitrooxy)butyl]-6-chloro-3,4-dihydro-, 1,1-dioxide] | 158 to 162 °C |  | Urine collected in 6 hours (mL) (3 mg/kg) (Male Wistar rats; rat, in vivo, po): 3.8 ± 0.5 mL |
| NS(=O)(=O)c1cc2c(cc1Cl)NC(CCCO[N+](=O)[O-])NS2(=O)=O (stereo not shown) [Example 8, 2H-1,2,4-Benzothiadiazine-7-sulfonamide, 6-chloro-3,4-dihydro-3-[3-(nitrooxy)propyl]-, 1,1-dioxide] | 178 to 181 °C |  | Urine collected in 6 hours (mL) (30 mg/kg) (Male Wistar rats; [5]): 6.2 ± 0.7 mL |
| NS(=O)(=O)c1cc2c(cc1Cl)NCN(CCO)S2(=O)=O [Example 32b, 2H-1,2,4-Benzothiadiazine-7-sulfonamide, 6-chloro-3,4-dihydro-2-(2-hydroxyethyl)-, 1,1-dioxide] | 226 to 228 °C | 5.1 ± 0.2 |  |
| NS(=O)(=O)c1cc2c(cc1Cl)NC(CCCCCO)NS2(=O)=O (stereo not shown) [Example 24c, 2H-1,2,4-Benzothiadiazine-7-sulfonamide, 6-chloro-3,4-dihydro-3-(5-hydroxypentyl)-, 1,1-dioxide] | 190 °C | 8.6 ± 0.4 | Urine collected in 6 hours (mL) (30 mg/kg) (Male Wistar rats; [5]): 7.2 ± 0.7 mL |
| NS(=O)(=O)c1cc2c(cc1Cl)NCN(CC(=O)N(CCCO[N+](=O)[O-])CCCO[N+](=O)[O-])S2(=O)=O [Example 72b, 2H-1,2,4-Benzothiadiazine-2-acetamide, 7-(aminosulfonyl)-6-chloro-3,4-dihydro-N,N-bis[3-(nitrooxy)propyl]-, 1,1-dioxide] | 157 to 160 °C |  | Urine collected in 6 hours (mL) (3 mg/kg) (Male Wistar rats; rat, in vivo, po): 1.8 ± 0.2 mL |

Continued, in another order:

| melting point | Structure (SMILES) | Urine collected in 6 hours (mL) (3 mg/kg) (Male Wistar rats; [4]) | other results |
| --- | --- | --- | --- |
| 161 to 163 °C (dec.) | NS(=O)(=O)c1cc2c(cc1Cl)NCN(CCO[N+](=O)[O-])S2(=O)=O [Example 51, 2H-1,2,4-Benzothiadiazine-7-sulfonamide, 6-chloro-3,4-dihydro-2-[2-(nitrooxy)ethyl]-, 1,1-dioxide] | 8.0 ± 1.1 | RENIN (Relative Units) DAY 0 (plasma renin): 6.1 ± 0.3 Relative Units; plasma renin measured on day 29 as compared to vehicle or HCT treated rats (plasma renin; [3]): significantly lowered; RENIN (Relative Units) Day 29 (plasma renin): 9.5 ± 0.5^a,b Relative Units; ALDOSTERONE (pg/ml) DAY 0 (plasma aldosterone): 540.8 ± 38.9 pg/mL; plasma aldosterone measured on day 29 as compared to vehicle or HCT treated rats (plasma aldosterone; [3]): significantly lowered; ALDOSTERONE (pg/ml) Day 29 (plasma aldosterone): 1326.6 ± 118.7^c pg/ml |
| 120 to 123 °C | NS(=O)(=O)c1cc2c(cc1Cl)NCN(CCCCCO[N+](=O)[O-])S2(=O)=O [Example 46b, 2H-1,2,4-Benzothiadiazine-7-sulfonamide, 6-chloro-3,4-dihydro-2-[5-(nitrooxy)pentyl]-, 1,1-dioxide] | 7.3 ± 0.7 | vasorelaxant response in the presence of ODQ ([2]; ODQ, inhibitor of NO-sensitive guanylyl cyclase, rat aorta precontracted with phenylephrine (1 μM)): abolished; pEC50 ([2]; Rattus norvegicus, aortic rings precontracted with phenylephrine (1 μM), relaxation as % of maximum by papaverine): ~5.15 |
| 160 to 162 °C (dec.) | NS(=O)(=O)c1cc2c(cc1Cl)NCN(C/C=C/CO[N+](=O)[O-])S2(=O)=O [Example 67b, 2H-1,2,4-Benzothiadiazine-7-sulfonamide, 6-chloro-3,4-dihydro-2-[(2E)-4-(nitrooxy)-2-butenyl]-, 1,1-dioxide] | 6.7 ± 0.6 |  |
| 238 to 240 °C | CC1(C)CC(CC2Nc3cc(Cl)c(S(N)(=O)=O)cc3S(=O)(=O)N2)CC(C)(C)N1O (stereo not shown) [Example 76b, 1-Piperidinyloxy, 4-[[7-(aminosulfonyl)-6-chloro-3,4-dihydro-1,1-dioxido-2H-1,2,4-benzothiadiazin-3-yl]methyl]-2,2,6,6-tetramethyl-] |  | Urine collected in 6 hours (mL) (3 mg/kg) (Male Wistar rats; p.o. 3 mg/kg in 0.5% Methocel, male Wistar rats, 6 hours, mean ± SEM, n=6 or 7, 3 mg/kg): 2.2 ± 0.4 mL |
| 175 to 180 °C | CN(CCO[N+](=O)[O-])CC1Nc2cc(Cl)c(S(N)(=O)=O)cc2S(=O)(=O)N1 (stereo not shown) [Example 45, 2H-1,2,4-Benzothiadiazine-7-sulfonamide, 6-chloro-3,4-dihydro-3-[[methyl[2-(nitrooxy)ethyl]amino]methyl]-, 1,1-dioxide] | 4.8 ± 1.3 |  |
| 96 to 99 °C | NS(=O)(=O)c1cc2c(cc1Cl)NCN(CCCCO)S2(=O)=O [Example 41, 2H-1,2,4-Benzothiadiazine-7-sulfonamide, 6-chloro-3,4-dihydro-2-(4-hydroxybutyl)-, 1,1-dioxide] | 5.5 ± 0.6 |  |
| 72 to 78 °C | NS(=O)(=O)c1cc2c(cc1Cl)NCN(CCCC(=O)O)S2(=O)=O [Example 53c, 2H-1,2,4-Benzothiadiazine-2-butanoic acid, 7-(aminosulfonyl)-6-chloro-3,4-dihydro-, 1,1-dioxide] | 3.7 ± 0.4 |  |
